Test results from US20230358677A1, “Reversible Excited-State Photoacids and Photobases as Dynamic Fluorescence Sensors of Protonic Species” (California Institute of Technology, priority 2022, published 2023).
Blank lines part the entries; values can stand above or below the compound they belong to.

Legend:
[1] = cited from earlier work
[2] = Acid-base titration of aqueous photoacid with absorption and steady-state photoluminescence detection (Henderson-Hasselbalch / Stern-Volmer fits, OH− as quencher)
Excerpt: FIGS. 2A through 2C illustrate acid-base titration of an aqueous solution of NS—NH2 photoacid with absorption and photoluminescence detection in accordance with an embodiment.
where aOH− is the activity of OH^−(aq), K*b pseudo is an erroneous observed equilibrium constant for base dissociation and KSV,OH− is the Stern-Volmer quenching constant, which is strictly dimensionless but reported here in units of M^−1 to be consistent with its typical usage. Unlike the Henderson-Hasselbalch equation, the Stern-Volmer equation is also applicable to non-equilibrium processes.
and KSV,OH−=k+q,OH−τo,PAH*, where τ is the excited-state lifetime (s) of NS—NH2* in the absence (τo,PAH*) or presence (τPAH*) of OH^− quencher and k+q,OH− is the bimolecular rate constant (M^−1 s^−1) for quenching of NS—NH2* by OH^− (forward direction of Reaction 1 with B=OH^−(aq)).
Several embodiments use the steady-state ultraviolet-visible electronic absorption and photoluminescence spectroscopy for characterization. Equal amounts of aromatic amine photoacids are portioned into five separate 100 mL volumetric flasks. For the non-proton-accepting quencher experiments, the five flasks are filled to the volumetric marker with aqueous solutions of 1 M HCl, 1 M KOH, 2 M KOH, 3 M KOH, and 4 M KOH. The aqueous 1 M KOH solution is titrated with the aqueous 1 M HCl solution to reach the desired pH values from 14 to 6, and the H^+ activities are measured using a pH meter (pH/Ion 510). […] Electronic absorption spectra and photoluminescence spectra are acquired using absorbance and fluorescence spectrometer(s), using a square-bottom quartz cuvette (1 cm path length) at room temperature. Electronic absorption spectra are baselined on a spectrum of deionized water and were corrected for scattering of light. Photoluminescence spectra are recorded by exciting with 310 nm light, slit widths for the excitation and emission monochromators were set to 5 nm, and the PMT detector voltage is set to 600 V. Photoluminescence spectra are corrected for changes in solution refractive index, inner filter effects and the wavelength-dependent correction factor of the fluorimeter. For experiments that use non-OH^− proton-accepting quenchers, equal amounts of the quencher are added to the dry volumetric flask intended to form the acidic and basic aqueous photoacid solutions, to prevent changes in total quencher concentration during the titration, and titrations are performed similarly to those in the absence of added proton-accepting quenchers. Although the total quencher concentration is kept constant throughout the titration, the activity of the deprotonated quencher species varied as a function of solution pH according to Equation 3. Ionic strength is matched at the most alkaline pH values; however, it is experimentally difficult to maintain the same ionic strength throughout the titration. Normalized photoluminescence intensities as a function of solution pH are obtained by dividing the corrected photoluminescence intensities at the wavelength of maximum photoluminescence to the maximum corrected photoluminescence intensity at the same wavelength.

[3] = Acid-base titrations of NS—NH2 in the presence of proton-accepting quenchers (modified Stern-Volmer, Equation 7); details: for KSV,OH−: Equation 7; for pKa: pKa,BH+ (Equation 7)
Excerpt: Assuming that photoluminescence quenching occurs by ESPT from NS—NH2* to OH^−(aq), the data support that when aOH− is small (i.e. at pH less than about 12), ESPT can be quite slow compared to the excited-state lifetime of NS—NH2*, due to mass action (FIG. 2B). The non-unity quantum yield for ESPT in weakly alkaline aqueous solutions afforded us an opportunity to evaluate a series of aqueous proton-accepting quenchers (glycine (Gly(aq)), proline (Pro(aq)), and trifluoroethanol (TFE(aq))) for their ability to undergo ESPT with NS—NH2*. In order to clearly observe ESPT to a species other than OH^−(aq), added proton-accepting quenchers had to be more basic (ΔG^o<0), or slightly more acidic (ΔG^o>0), than NS—NH2*, and less basic than OH^−(aq). […] As pH values approach and pass the pKa of the proton-accepting quencher, the rate of ESPT slows from a decrease in the concentration of proton-accepting quencher due to its protonation. This is supported by observations from analogous experiments performed using different concentrations of quencher. Best fits of measured photoluminescence spectroscopy data to a modified Stern-Volmer equation for a two-quencher system, including both OH^−(aq) and proton-accepting quencher, provided bimolecular rate constants for deprotonation of the photoacid by each quencher,
where KSV,OH−=K*^−1b and KSV,quencher=k+q,quencherτo,PAH* are the dynamic quenching constants for excited-state proton transfer to OH^−(aq) and proton-accepting quencher, respectively, k+q,quencher is the bimolecular rate constant (M^−1 s^−1) for ESPT quenching by the proton-accepting quencher, and the sum of the activities of B and BH^+ is approximated as the total concentration of the proton-accepting quencher. While the pKa of the proton-accepting quencher is an adjustable parameter during best fitting, extracted pKa values are close to pKa values obtained from the acid-base titration curves of the proton-accepting quenchers. Changing the proton-accepting quencher to one with a smaller pKa value results in a slower non-diffusion-limited rate constant for ESPT with NS—NH2*. The observation of ESPT directly from NS—NH2* to each of two different amino acids, Gly and Pro, is notable, and may have important implications for biological systems where direct protonation of proteins can induce cellular responses.
Table 2 lists driving-force-dependent rate constants for direct excited-state proton transfer from NS—NH2* to various proton-accepting quenchers.
Several embodiments use the steady-state ultraviolet-visible electronic absorption and photoluminescence spectroscopy for characterization. Equal amounts of aromatic amine photoacids are portioned into five separate 100 mL volumetric flasks. For the non-proton-accepting quencher experiments, the five flasks are filled to the volumetric marker with aqueous solutions of 1 M HCl, 1 M KOH, 2 M KOH, 3 M KOH, and 4 M KOH. The aqueous 1 M KOH solution is titrated with the aqueous 1 M HCl solution to reach the desired pH values from 14 to 6, and the H^+ activities are measured using a pH meter (pH/Ion 510). […] Electronic absorption spectra and photoluminescence spectra are acquired using absorbance and fluorescence spectrometer(s), using a square-bottom quartz cuvette (1 cm path length) at room temperature. Electronic absorption spectra are baselined on a spectrum of deionized water and were corrected for scattering of light. Photoluminescence spectra are recorded by exciting with 310 nm light, slit widths for the excitation and emission monochromators were set to 5 nm, and the PMT detector voltage is set to 600 V. Photoluminescence spectra are corrected for changes in solution refractive index, inner filter effects and the wavelength-dependent correction factor of the fluorimeter.

[4] = Marcus-Cohen bond-energy-bond-order (BEBO) analysis of quenching rate constants; type: physicochemical
Excerpt: Several embodiments provide accurate quantification of excited-state Brønsted-Lowry acidity and reorganization energy of weak photoacids using Marcus-Cohen bond-energy-bond-order (BEBO) theory. Data for this series of proton-accepting quenchers analyze the dependence of driving force on ESPT quenching rate constants and assess the validity of Marcus normal region behavior, as has been performed numerous times for excited-state electron transfer and proton-coupled electron transfer. Like excited-state electron-transfer quenching in polar solvents, ESPT is proposed to proceed through formation of an excited-state encounter complex between reactants prior to proton transfer, but unique to ESPT is dissociation of an excited-state encounter complex between products after proton transfer. […]
where ΔGEC,R^o, ΔGPT^oand −ΔGEC,P^o are the standard Gibbs free energy differences for the individual reaction steps in the excited-state proton-transfer reaction sequence. Kinetic data (Equation 8) and thermodynamic data (Equation 11) are analyzed using Marcus-Cohen bond-energy-bond-order (BEBO) theory, which is based on transition-state theory and results in the following relationship between ΔGPT^‡ and ΔGPT^o, […]

[5] = cited from earlier work; remark: listed apart in the source
[6] = physchem
[7] = proton acceptor, aqueous; cited from earlier work
[8] = Stability of dye fluorescence near an operating gas diffusion electrode
[9] = 1 M total trifluoroethanol present
[10] = quenching of NS—NH2*, 1 M total quencher

Compound: Oc1ccc2ccc3cccc4ccc1c2c34 [1-hydroxypyrene]
ground state pKa [1]: about 9

pKa ([2]; aqueous solution, ground-state pKa, aromatic amine, aqueous): > 17 | ΔGo,PT‡ ([4]; Gibbs free energy of activation of proton-transfer step at ΔGPT°=0): 0.080±0.005 eV | “true” pK*a ([4]; Marcus-Cohen BEBO analysis): 11.7±0.1
Compound: Nc1cccc2c(S(=O)(=O)[O-])cccc12.[Na+] [NS—NH2, 5-aminonaphthalene-1-sulfonic acid sodium salt]
KSV,τ,OH− (linearized Stern-Volmer) ([2]; lifetime data, linearized Stern-Volmer fit, OH−(aq) quencher): about 55±1 M^−1 | KSV,τ,OH− ([2]; lifetime data, non-linear Stern-Volmer fit, OH−(aq) quencher): about 54±6 M^−1 | bimolecular rate constant k+q,τ,OH− ([2]; lifetime data, forward direction of Reaction 1 with B=OH−(aq)): about (12±1)×10^9 M^−1 s^−1 | KSV,ss,OH− ([2]; steady-state photoluminescence, non-linear Stern-Volmer fit, OH−(aq) quencher): about 47±1 M^−1 | KSV,ss,OH− (linearized Stern-Volmer) ([2]; steady-state photoluminescence, traditional linearized Stern-Volmer fit, OH−(aq) quencher): about 46±1 M^−1 | bimolecular rate constant, deprotonation of NS—NH2* by OH−(aq) ([3]; 0.17 M total phosphate present): (163±8)×10^8 M^−1 s^−1 | bimolecular rate constant, deprotonation of NS—NH2* by OH−(aq) ([3]; 1 M total glycine present): (43±1)×10^8 M^−1 s^−1 | bimolecular rate constant, deprotonation of NS—NH2* by OH−(aq) ([3]; 1 M total proline present): (47±2)×10^8 M^−1 s^−1 | bimolecular rate constant, deprotonation of NS—NH2* by OH−(aq) [3, 9]: (60±30)×10^8 M^−1 s^−1 | bimolecular rate constant, deprotonation of NS—NH2* by OH−(aq) ([3]; 2 M total glycine present): (38±2)×10^8 M^−1 s^−1 | KSV,OH− ([3]; 0.17 M total phosphate present): 37 ± 2 M⁻¹ | KSV,OH− ([3]; 1 M total glycine present): 20 ± 1 M⁻¹ | KSV,OH− ([3]; 1 M total proline present): 22 ± 1 M⁻¹ | KSV,OH− [3, 9]: 30 ± 10 M⁻¹ | KSV,OH− ([3]; 2 M total glycine present): 8.6 ± 0.4 M⁻¹

pKa [6]: 10.8 | pKa ([3]; value after the slash): 10.8 | pKa ([3]; value before the slash): 10.7
Compound: O=C(O)[C@@H]1CCCN1 [Proline]
pKa, literature value [5]: 10.5 | bimolecular rate constant, deprotonation of NS—NH2* by the quencher ([3]; 1 M total quencher): (1.70±0.05)×10^8 M^−1 s^−1 | k+q,corr ([3]; corrected rate constant, ESPT from NS—NH2* to the proton acceptor): 7.11 ± 0.21 10^8 M^−1 s^−1 | k+q ([3]; direct excited-state proton transfer from NS—NH2* to the proton acceptor): 1.70 ± 0.05 10^8 M^−1 s^−1 | KSV,quencher (Equation 7) [3, 10]: 0.80 ± 0.02 M⁻¹ | KSV,quencher (traditional linearized Stern-Volmer) [3, 10]: 0.79 ± 0.01 M⁻¹ | Diffusion Coefficient [7]: 8.79 10^−6 cm^2/s

Compound: O=S(=O)(O)c1cc(S(=O)(=O)O)c2ccc3c(O)cc(O)c4ccc1c2c43 [DHPDS, 6,8-dihydroxy-1,3-pyrenedisulfonic acid]
fluorescent signal during GDE operation ([8]; cathodic current densities of 100 mA/cm^2 in magnitude, or larger): Some loss of fluorescent signal | photoluminescence intensity during GDE operation ([8]; current density between 0 and −20 mA/cm^2): no significant decrease in photoluminescence intensity | pK*a ([1]; strong photoacid): ≈ 0
